Data published in the supplement of paper PMC11208160.

Assay: recombinant UMI read abundance after kanamycin selection (control-corrected) (log10(CPM+1)); higher = more efficient recombination; extreme values may be limits of the assay; sequences stand for … in AGTGCAGAGAAAATCGGCCAGTTTTCTCTGCCTGCAGTCCGCATGCCGTGGGACCCCTTGGGTTCTAACCTGTTGCCTAGATTTATGCAGCGGACTGCCTTTCTCCCAAAGTGATAAACCGG…AGGTTGGTTTCACT; site = the 11-nt donor
How it was run: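 Values are reported as log10(CPM+1), obtained by converting sequencing counts to CPM, averaging replicates and scaling by control-derived factors. The counts came from recombinant UMIs amplified by PCR across the donor–target junction. These UMIs came from a pooled Escherichia coli screen of donor and donor-binding-loop pairs for the IS621 bridge recombinase, plated with IPTG (0.07 mM) plus kanamycin or left unselected, in two replicates each.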
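Note: IS621 bridge recombinase in Escherichia coli cells against a fixed T5 target plasmid.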

Sequence	recombinant UMI read abundance (log10)
GGTACGTCATGGACCGGTTTTCCCGGTAATCCGTATTTGTA (site GGTACGTCTTA)	0.651
GGTACTGCATGGACCGGTTTTCCCGGTAATCCGTATTTGCC (site GATACTGCTGG)	0
GGTACTGCATGGACCGGTTTTCCCGGTAATCCGTATTTGCC (site GCTACTGCTGG)	0.662
GGTACTGCATGGACCGGTTTTCCCGGTAATCCGTATTTGCC (site GGTACTGCTGG)	1.58
GGTACTGCATGGACCGGTTTTCCCGGTAATCCGTATTTGCC (site GTTACTGCTGG)	0
GGTATGTCATGGACCGGTTTTCCCGGTAATCCGTATTTGTT (site GGTAAGTCTAA)	0.00575
GGTATGTCATGGACCGGTTTTCCCGGTAATCCGTATTTGTT (site GGTACGTCTAA)	0.0321
GGTATGTCATGGACCGGTTTTCCCGGTAATCCGTATTTGTT (site GGTAGGTCTAA)	0.00327
GGTATGTCATGGACCGGTTTTCCCGGTAATCCGTATTTGTT (site GGTATGTCTAA)	0.586
GGTATTACATGGACCGGTTTTCCCGGTAATCCGTATTTGAG (site GGTATTACTCT)	0
GGTCACACATGGACCGGTTTTCCCGGTAATCCGTATTTGTC (site GGTCACACTGA)	2.3
GGTCACCCATGGACCGGTTTTCCCGGTAATCCGTATTTGTT (site GGACACCCTAA)	0
GGTCACCCATGGACCGGTTTTCCCGGTAATCCGTATTTGTT (site GGCCACCCTAA)	0.0117
GGTCACCCATGGACCGGTTTTCCCGGTAATCCGTATTTGTT (site GGGCACCCTAA)	0.0126
GGTCACCCATGGACCGGTTTTCCCGGTAATCCGTATTTGTT (site GGTCACCCTAA)	0.00231
GGTCAGCCATGGACCGGTTTTCCCGGTAATCCGTATTTGGG (site GGTCAGCCTCC)	0.00726
GGTCCAACATGGACCGGTTTTCCCGGTAATCCGTATTTGCA (site GGTCCAACTTA)	0.0117
GGTCCAACATGGACCGGTTTTCCCGGTAATCCGTATTTGCA (site GGTCCAACTTC)	0.107
GGTCCAACATGGACCGGTTTTCCCGGTAATCCGTATTTGCA (site GGTCCAACTTG)	0
GGTCCAACATGGACCGGTTTTCCCGGTAATCCGTATTTGCA (site GGTCCAACTTT)	0.0134
GGTCCAACATGGACCGGTTTTCCCGGTAATCCGTATTTGTA (site AGTCCAACTTA)	0.0127
GGTCCAACATGGACCGGTTTTCCCGGTAATCCGTATTTGTA (site CGTCCAACTTA)	0
GGTCCAACATGGACCGGTTTTCCCGGTAATCCGTATTTGTA (site GATCCAACTTA)	0.0069

Sequence	recombinant UMI read abundance (log10)
GGTCCAACATGGACCGGTTTTCCCGGTAATCCGTATTTGTA (site GCTCCAACTTA)	0.00409
GGTCCAACATGGACCGGTTTTCCCGGTAATCCGTATTTGTA (site GGACCAACTTA)	0.00547
GGTCCAACATGGACCGGTTTTCCCGGTAATCCGTATTTGTA (site GGCCCAACTTA)	0.0162
GGTCCAACATGGACCGGTTTTCCCGGTAATCCGTATTTGTA (site GGGCCAACTTA)	0.00345
GGTCCAACATGGACCGGTTTTCCCGGTAATCCGTATTTGTA (site GGTACAACTTA)	0.00331
GGTCCAACATGGACCGGTTTTCCCGGTAATCCGTATTTGTA (site GGTCAAACTTA)	0.0208
GGTCCAACATGGACCGGTTTTCCCGGTAATCCGTATTTGTA (site GGTCCAACTAA)	0.0196
GGTCCAACATGGACCGGTTTTCCCGGTAATCCGTATTTGTA (site GGTCCAACTCA)	0.0175
GGTCCAACATGGACCGGTTTTCCCGGTAATCCGTATTTGTA (site GGTCCAACTGA)	0
GGTCCAACATGGACCGGTTTTCCCGGTAATCCGTATTTGTA (site GGTCCAACTTA)	0.431
GGTCCAACATGGACCGGTTTTCCCGGTAATCCGTATTTGTA (site GGTCCAACTTC)	0.0212
GGTCCAACATGGACCGGTTTTCCCGGTAATCCGTATTTGTA (site GGTCCAACTTG)	0.016
GGTCCAACATGGACCGGTTTTCCCGGTAATCCGTATTTGTA (site GGTCCAACTTT)	0.0114
GGTCCAACATGGACCGGTTTTCCCGGTAATCCGTATTTGTA (site GGTCCACCTTA)	0.011
GGTCCAACATGGACCGGTTTTCCCGGTAATCCGTATTTGTA (site GGTCCAGCTTA)	0.015
GGTCCAACATGGACCGGTTTTCCCGGTAATCCGTATTTGTA (site GGTCCATCTTA)	0.583
GGTCCAACATGGACCGGTTTTCCCGGTAATCCGTATTTGTA (site GGTCCCACTTA)	0.00585
GGTCCAACATGGACCGGTTTTCCCGGTAATCCGTATTTGTA (site GGTCCGACTTA)	0.0188
GGTCCAACATGGACCGGTTTTCCCGGTAATCCGTATTTGTA (site GGTCCTACTTA)	0.00929
GGTCCAACATGGACCGGTTTTCCCGGTAATCCGTATTTGTA (site GGTCGAACTTA)	0.0172
GGTCCAACATGGACCGGTTTTCCCGGTAATCCGTATTTGTA (site GGTCTAACTTA)	0.00385
GGTCCAACATGGACCGGTTTTCCCGGTAATCCGTATTTGTA (site GGTGCAACTTA)	0.0122
GGTCCAACATGGACCGGTTTTCCCGGTAATCCGTATTTGTA (site GGTTCAACTTA)	0.0111

Sequence	recombinant UMI read abundance (log10)
GGTCCAACATGGACCGGTTTTCCCGGTAATCCGTATTTGTA (site GTTCCAACTTA)	0.0101
GGTCCAACATGGACCGGTTTTCCCGGTAATCCGTATTTGTA (site TGTCCAACTTA)	0.00249
GGTCCAACATGGACCGGTTTTCCCGGTAATCCGTATTTGTG (site GGTCCAACTAA)	0.00832
GGTCCAACATGGACCGGTTTTCCCGGTAATCCGTATTTGTG (site GGTCCAACTCA)	0.00564
GGTCCAACATGGACCGGTTTTCCCGGTAATCCGTATTTGTG (site GGTCCAACTGA)	0
GGTCCAACATGGACCGGTTTTCCCGGTAATCCGTATTTGTG (site GGTCCAACTTA)	0.00906
GGTCCCTCATGGACCGGTTTTCCCGGTAATCCGTATTTGTG (site GGTCCCTCTCA)	0.413
GGTGAACCATGGACCGGTTTTCCCGGTAATCCGTATTTGGG (site GGTGAACCTCC)	0
GGTGAAGCATGGACCGGTTTTCCCGGTAATCCGTATTTGAG (site GGTGAAGCTCT)	1.82
GGTGACTCATGGACCGGTTTTCCCGGTAATCCGTATTTGAC (site GGTGACTCTGT)	2.47
GGTGAGGCATGGACCGGTTTTCCCGGTAATCCGTATTTGGT (site GGTGAGGCTAC)	1.1
GGTGAGTCATGGACCGGTTTTCCCGGTAATCCGTATTTGGC (site GGTGAGTCTGC)	2.23
GGTGCAACATGGACCGGTTTTCCCGGTAATCCGTATTTGTA (site GGTACAACTTA)	0.01
GGTGCAACATGGACCGGTTTTCCCGGTAATCCGTATTTGTA (site GGTCCAACTTA)	0.00521
GGTGCAACATGGACCGGTTTTCCCGGTAATCCGTATTTGTA (site GGTGCAACTTA)	0.221
GGTGCAACATGGACCGGTTTTCCCGGTAATCCGTATTTGTA (site GGTTCAACTTA)	0.00709
GGTGCGTCATGGACCGGTTTTCCCGGTAATCCGTATTTGGA (site GGTGCGTCTTC)	0.59
GGTGTTCCATGGACCGGTTTTCCCGGTAATCCGTATTTGGT (site GATGTTCCTAC)	0.0226
GGTGTTCCATGGACCGGTTTTCCCGGTAATCCGTATTTGGT (site GCTGTTCCTAC)	0.0204
GGTGTTCCATGGACCGGTTTTCCCGGTAATCCGTATTTGGT (site GGTGTTCCTAC)	0.0141
GGTGTTCCATGGACCGGTTTTCCCGGTAATCCGTATTTGGT (site GTTGTTCCTAC)	0
GGTTACCCATGGACCGGTTTTCCCGGTAATCCGTATTTGTC (site GGTTACCCTGA)	0.664
